# Measured values taken from patent US7745651B2, “Cationic lipids and methods of use” (Protiva Biotherapeutics, Inc., priority 2004, dated 2010).
# Legend:
# [1] = Nucleic acid encapsulation in SNALP, RiboGreen fluorescence assay; format: physicochemical; conditions: SNALP DSPC:Chol:PEG-C-DMA:Cationic Lipid 20:48:2:30 molar percent, siRNA; mean of 3 experiments, error is standard deviation
# Description: (§1) SNALP Preparation: SNALP with a lipid composition of DSPC:Chol:PEG-C-DMA:Cationic Lipid (20:48:2:30 molar percent) were prepared using the spontaneous vesicle formation by ethanol dilution method [Jeffs et al., Pharm. Res. In Press (2005)]. The sample's were diafiltered against 100 mL of PBS (20 wash volumes) using a cross flow ultrafiltration cartridge (Amersham Biosciences, Piscataway, N.J.) and sterile filtered through Acrodisc 0.2 μm Posidyne filters (Pall Corp., Ann Arbor, Mich.). The siRNA concentration of final samples was determined using the RiboGreen assay and a siRNA standard curve. Particle size and polydispersity was determined using a Malvern Instruments Zetasizer 3000HSA (Malvern, UK). Nucleic acid encapsulation was determined using a RiboGreen assay, comparing fluorescence in the presence and absence of Triton X-100. RiboGreen fluorescence was measured using a Varian Eclipse Spectrofluorometer (Varian Inc) with λex=500 nm, λem=525 nm.
# (§2) This example sets forth the physical properties of the SNALP formulations described herein. SNALP containing the various cationic lipids were prepared as described and encapsulated RNA and particle size assessed (Table 1 below). […] Polydispersity of all formulations was low, indicating a narrow distribution of particle size. RNA encapsulation in the final particles was 84-85% of the total.
# (§3) Percentage Encapsulation was determined using the RiboGreen fluorescence assay to measure the amount of encapsulated nucleic acid relative to the total nucleic acid present. Particle diameter and polydispersity was measured using a Malvern Zetasizer. Values are the mean of 3 separate experiments, the error is standard deviation.
# [2] = SNALP particle diameter and polydispersity, Malvern Zetasizer; format: physicochemical; conditions: SNALP DSPC:Chol:PEG-C-DMA:Cationic Lipid 20:48:2:30 molar percent; mean of 3 experiments, error is standard deviation
# Description: as §1, §2, §3
# [3] = tested on: luciferase expression in Neuro2A-G cells (Neuro2A cells stably transfected to express luciferase); test: In vitro transfection: luciferase gene silencing by SNALP encapsulating anti-luciferase siRNA; format: cell-based; conditions: for luciferase expression relative to untreated control: after 48 hours
# Description: In vitro Transfection: Cells were cultured in MEM (Invitrogen) containing 10% fetal bovine serum (FBS) (CanSera) and 0.25 mg/mL G418 (Invitrogen). Neuro2A-G cells (Neuro2A cells stably transfected to express luciferase [R. E. Kingston. in Current Protocols in Molecular Biology, Vol. 2, pp. 9.1.4-9.1.9, John Wiley & Sons, Inc. (1997)]) were plated at a concentration of 4×10^4 cells per well in 24-well plates and grown overnight. Cells were treated with SNALP at doses of 0.0625-1.0 μg/mL nucleic acid (AntiLuc Active or Mismatch Control) and incubated for 48 hours at 37° C. and 5% CO2. Cells were then washed with PBS and lysed with 200 μL 250 mM sodium phosphate containing 0.1% Triton X-100. The luciferase activity for each well was determined using Luciferase Reagent (Promega) and a standard luciferase protein (Roche). The luminescence for each was measured using a Berthold MicroLumatPlus LB96V plate luminometer. The resulting luciferase activity was then normalized for the amount of protein using the Micro BCA assay kit (Pierce). Luciferase knockdown relative to a control was then determined for each system.
# This example describes experiments comparing expression of nucleic acids following in vitro transfection of Neuro2A cells with SNALP comprising: (1) DODAC, DODMA, or DLinDMA; (2) PEG-C-DMA; and (3) an siRNA duplex directed against luciferase encapsulated in the SNALP (i.e., siRNA comprising the following sequence: […] (SEQ ID NO:1) and targeting the DNA sequence complementary to: […] (SEQ ID NO:3)). Neuro2A cells were stably transfected with a plasmid encoding luciferase under the control of the CMV promoter (pLO55). The stably transfected cells were then transfected with SNALP comprising: 15, 20, 25, 30, 35, or 40% of DODAC, DODMA, or DLinDMA; 2% PEG-C-DMA, and an siRNA duplex directed against luciferase encapsulated in the SNALP. Luciferase protein expression was measured 48 hours after transfection with SNALP.
# The ability of SNALP containing each of the four cationic lipids (i.e., DSDMA, DODMA, DLinDMA, and DLenDMA) to effect gene silencing in stably transfected Neuro2A cells was evaluated. Neuro2A cells stably transfected to express the luciferase were treated with SNALP containing anti-luciferase siRNA for 48 hours. Gene-silencing efficiency was evaluated by comparing the remaining luciferase activity in these cells to that remaining in cells treated with control SNALP containing mismatch siRNA.
# [4] = TNS assay, apparent pKa of cationic lipid incorporated in SNALP; conditions: TNS fluorescence, pH varied from 4.5 to 9.5
# Description: TNS Assay: 20 μM of SNALP lipid and 6 μM of TNS were mixed in a fluorescence cuvette in 2 mL of 20 mM sodium phosphate, 25 mM citrate, 20 mM ammonium acetate and 150 mM NaCl, at a pH that was varied from 4.5 to 9.5. Fluorescence was determined at each pH using a Varian Eclipse Spectrofluorometer (Varian Inc) with settings of λex=322 nm, λem=431 nm. Fluorescence for each system at the various pH was then normalized to the value at pH 4.5. The pKa values are the point at which 50% of the molecules present are charged. By assuming that minimum fluorescence represents zero charge, and maximum fluorescence represents 100% charge, pKa can be estimated by measuring the pH at the point exactly half way between the values of minimum and maximum charge.
# TNS is electrostatically attracted to positively charged membranes. Subsequent adsorption to the lipid membrane results in the immediate environment of the TNS becoming more lipophilic, removing the water molecules that otherwise quench TNS fluorescence. Since TNS is more readily absorbed by positively charged membranes, TNS fluorescence is an indicator of positive membrane surface charge. The surface pKa values of each SNALP formulation were determined by varying the local pH in the presence of TNS.
# [5] = SNALP with anti-luciferase siRNA
SMILES,% Encapsulation [1] [%],Diameter (nm) [2] [nm],Polydispersity [2],"knockdown in gene expression (luciferase) versus control SNALP containing mismatch siRNA ([3]; Neuro2A cells stably expressing luciferase, SNALP with anti-luciferase siRNA, 48 hours) [%]","reduction of luciferase expression compared with SNALP comprising DODAC or DODMA ([3]; SNALP with 30% cationic lipid, 2% PEG-C-DMA, anti-luciferase siRNA, 48 hours after transfection)","luciferase expression relative to untreated control [3, 5] [%]",apparent (surface) pKa of cationic lipid in SNALP [4]
"CCCCC/C=C\C/C=C\CCCCCCCCOCC(CN(C)C)OCCCCCCCC/C=C\C/C=C\CCCCC (centres unmarked) [DLinDMA, 1,2-DiLinoleyloxy-N,N-dimethylaminopropane]",84 ± 3,140 ± 6,0.11 ± 0.02,80,more effective in reducing luciferase expression,21,–
"CCCCCCCCCCCCCCCCCC[N+](C)(C)CCCCCCCCCCCCCCCCCC [DODMA, dioctadecyldimethylammonium]",84 ± 1,137 ± 4,0.12 ± 0.01,–,–,54,7.0
